Reference: patent US4265884A, “Therapeutically active polypeptides or acid addition salts thereof and a process for producing such compounds” (Nordisk Insulinlaboratorium, priority 1978, dated 1981)
Where a SMILES comes first, the peptide text is derived from it.

Columns and labels:
Langerhans's islets = test: In vitro glucose stimulated insulin secretion from isolated Langerhans's islets; assay type: cell-based; conditions: for glucose stimulated insulin secretion, percentage of the effect of 10 mmolar glucose alone: hydrochloride, with 10 mM glucose, isolated islets preincubated 24 hours at 37° C
Method: In vitro determination of the effect or the peptides on the glucose stimulated insulin secretion was carried out on Langerhans's islets isolated by collagenase technique and preincubated 24 hours at 37° C. Secretion tests were conducted with 10 mM of glucose and three peptide concentrations.
All peptides have been tested in the form of their hydrochlorides together with 10 mmolar glucose, and the value is calculated as a percentage of the effect of 10 mmolar glucose alone.

[1] = pharmacological dosages; cited from earlier work

Row | Molecule | glucose stimulated insulin secretion, percentage of the effect of 10 mmolar glucose alone (Langerhans's islets; peptide 5mM) [%] | glucose stimulated insulin secretion, percentage of the effect of 10 mmolar glucose alone (Langerhans's islets; peptide 5 × 10^-1 mM) [%] | glucose stimulated insulin secretion, percentage of the effect of 10 mmolar glucose alone (Langerhans's islets; peptide 5 × 10^-2 mM) [%] | effect on insulin liberation from isolated Langerhans's islets (in words) (Langerhans's islets; same in vitro conditions as for the present peptides) | blood sugar level [1] | secretion of insulin [1]
1 | COC(=O)[C@H](CC(C)C)NC(=O)[C@H](CCCNC(=N)N)NC(=O)[C@@H](N)CCC(N)=O [Peptide 1, glnargleuOMe, 2HCl] (H-Gln-Arg-Leu-OMe) | 151 | 113 | 144 | – | – | –
2 | COC(=O)[C@H](CC(C)C)NC(=O)[C@H](CCCNC(=N)N)NC(=O)[C@H](CCC(N)=O)NC(=O)[C@@H](N)CC(C)C [Peptide 3, leuglnargleuOMe, 2HCl] (H-LQRL-OMe) | 240 | 127 | 124 | – | – | –
3 | COC(=O)[C@H](CC(C)C)NC(=O)[C@H](CCCNC(=N)N)NC(=O)[C@H](CCC(N)=O)NC(=O)[C@H](CC(C)C)NC(=O)[C@@H](N)CCCNC(=N)N [Peptide 4, argleuglnargleuOMe, 3HCl] (H-RLQRL-OMe) | 153 | 120 | 135 | – | – | –
4 | COC(=O)[C@H](CC(C)C)NC(=O)[C@H](CCCNC(=N)N)NC(=O)[C@H](CCC(N)=O)NC(=O)[C@H](CC(C)C)NC(=O)[C@H](CCCNC(=N)N)NC(=O)[C@H](C)NC(=O)[C@@H](N)CO [Peptide 5, seralaargleuglnargleuOMe, 3HCl] (H-SARLQRL-OMe) | 268 | 140 | – | – | – | –
5 | COC(=O)[C@H](CC(C)C)NC(=O)[C@H](CCCNC(=N)N)NC(=O)[C@H](CCC(N)=O)NC(=O)[C@H](CC(C)C)NC(=O)[C@H](CCCNC(=N)N)NC(=O)[C@H](C)NC(=O)[C@H](CO)NC(=O)[C@@H](N)CC(=O)O [Peptide 6, aspseralaargleuglnargleuOMe, 3HCl] (H-DSARLQRL-OMe) | 142 | 110 | – | – | – | –
6 | secretin | – | – | – | not been possible to make secretin affect the insulin liberation | without affecting the blood sugar level | potentiate the secretion of insulin
